We go through 99 molecules from ChEMBL document CHEMBL3507680, “University of Dundee, Gates Library screen for HepG2 cell viability”.

Molecules are shown by their SMILES.

The data set can be described thus: Human HepG2 cell viability assay in 384 well format. The data set is classed as toxicity, cell-based. Details: dose 125 nL, time 70.5 hour; cytotoxicity at 70.5 h: concentration not given beside the values. As to conditions: HepG2 cells, read-out: Inhibition.
For `N#Cc1ccc(F)c(CN2CCCCC2Cn2cccn2)c1` (centres undefined), the cytotoxicity at 70.5 h amounted to 0.631%.

As to `CC(CCNC(=O)N(C)CC1CCOCC1)N1CCCCC1` (centres undefined), the cytotoxicity at 70.5 h is -7.97%.

For the molecule `Cc1ncncc1C(=O)N1CCCC(c2[nH]ncc2S(C)(=O)=O)C1` (centres undefined), the cytotoxicity at 70.5 h was -6.13%.

In the case of `CC1CN(C(=O)Nc2cccc(CN3CCOC3=O)c2)CCO1` (centres undefined), the cytotoxicity at 70.5 h was -9.66%.

In the case of `CN1CCC(Cc2nc(-c3ccnn3C)n(Cc3ccccc3)n2)CC1`, the cytotoxicity at 70.5 h came to 12.7%.

`CN(Cc1noc(C2CC2)n1)C1CCN(CCS(C)(=O)=O)C1` (centres undefined): the cytotoxicity at 70.5 h is -3.36%.

Turning to `Cn1cc(Cl)c(CN(Cc2ccsc2)CC2CCCO2)n1` (centres undefined), the cytotoxicity at 70.5 h was -5.58%.

As to `c1cnc(N2CCOCC3(CN(Cc4cc[nH]n4)CCO3)C2)nc1` (centres undefined), the cytotoxicity at 70.5 h came out at 7.31%.

Take `CS(=O)(=O)N1C[C@H]2CNC[C@@]2(C(=O)NCCCc2ccccc2)C1`: the cytotoxicity at 70.5 h is -3.07%.

`CC(C)c1nccn1CCCNC(=O)c1ccc(-c2cnn(C)c2)nc1`: the cytotoxicity at 70.5 h was -5.24%.

Turning to `CCc1nc(C)sc1CN1C[C@@H](C)[C@@](C)(O)C1`, the cytotoxicity at 70.5 h was -11.2%.

`Cc1cc2cccc(NC(=O)N3CCC(N(C)C)C3)c2o1` (centres undefined): the cytotoxicity at 70.5 h was -8.17%.

As to `CN1CCOC(CNCCOc2cccc(C#N)c2)C1` (centres undefined), the cytotoxicity at 70.5 h was -7.36%.

Take `Cc1cccc(N2CCN(CCCNC(=O)c3nccn3C)CC2)c1`: the cytotoxicity at 70.5 h was -3.1%.

For `CN(Cc1ccccc1)S(=O)(=O)N1C[C@@H](C(=O)O)[C@H](C2CC2)C1`, the cytotoxicity at 70.5 h was -6.58%.

On to `CC(=O)Nc1cccc(OCCNC(=O)N(C)Cc2ccco2)c1`, for which the cytotoxicity at 70.5 h turned out to be 0.512%.

With `O=C(Cn1ccc(=O)[nH]c1=O)NCC1Cc2ccccc2O1` (centres undefined), the cytotoxicity at 70.5 h was -11.6%.

In the case of `COc1ccc(CN2CC(=O)N(c3ccc(C)cc3)CC2C)cc1O` (centres undefined), the cytotoxicity at 70.5 h is -2.16%.

On to `COC[C@@H]1CC[C@H]2[C@H](CCN2S(=O)(=O)c2cccc(C)c2)O1`, for which the cytotoxicity at 70.5 h was -11.1%.

On to `Cc1ccccc1-n1cc(CN(C)C(=O)CC2C(=O)NCCN2C)cn1` (centres undefined), for which the cytotoxicity at 70.5 h is -2.44%.

On to `CN(Cc1ccco1)C(=O)CN1CCOC(Cn2cncn2)C1` (centres undefined), for which the cytotoxicity at 70.5 h is -3.13%.

On to `O=C(CCn1cccc1)N1CCc2[nH]nc(COc3ccccc3)c2C1`, for which the cytotoxicity at 70.5 h is -7.09%.

On to `O=C(c1cccc2cccnc12)N1CCCN(c2cccnn2)CC1`, for which the cytotoxicity at 70.5 h is -10.5%.

With `C=C(C)CN1CCC(NC(=O)NCCc2ccccc2OC)CC1`, the cytotoxicity at 70.5 h was -7.86%.

As for `O=C(C1CCCc2[nH]ncc21)N1CCCC2(C1)OCCO2` (centres undefined), the cytotoxicity at 70.5 h is -9.5%.

Turning to `O=C(NCC1CC[C@@]2(CNCCOC2)O1)c1cnccn1` (some centres undefined), the cytotoxicity at 70.5 h came out at 27.6%.

In the case of `Cc1cc2nc(C(C)C)cc(NCC(c3ccccn3)N(C)C)n2n1` (centres undefined), the cytotoxicity at 70.5 h turned out to be 3.67%.

Consider `Cn1cc(N2CC3(CCN(S(=O)(=O)C4CC4)C3)CC2=O)cn1` (centres undefined), for which the cytotoxicity at 70.5 h is -1.83%.

As for `CC(C)CNC(=O)c1c(-n2cnnn2)sc2c1CCC2`, the cytotoxicity at 70.5 h was -13.7%.

Turning to `Cc1nc(Cn2c3c(ccc2=O)CC(NC(N)=O)CC3)cs1` (centres undefined), the cytotoxicity at 70.5 h was 5.59%.

For `O=C(NCC(F)F)c1cnc(C2CCCN2)cn1` (centres undefined), the cytotoxicity at 70.5 h was -3.12%.

Take `Cc1cnn(C(C)C(=O)NCC2CCN(c3cnn(C)c(=O)c3)CC2)c1` (centres undefined): the cytotoxicity at 70.5 h is -5.13%.

For the molecule `Cc1nc(Nc2ccc(Cl)cn2)sc1C(=O)NCCCN1CCCCC1`, the cytotoxicity at 70.5 h was -3.37%.

With `CCCn1cc(C(=O)NCc2nnc(-c3ccc(C)nc3)o2)c(C)n1`, the cytotoxicity at 70.5 h was -1.21%.

Take `CCCc1nc(CN(CC)C(=O)c2ccc(OC)c(OC)c2)no1`: the cytotoxicity at 70.5 h stood at 25.6%.

For the molecule `O=C(c1ccc(Br)s1)N1CCN(Cc2ccc(OC(F)(F)F)cc2)CC1`, the cytotoxicity at 70.5 h was 1.44%.

For the molecule `COCC(=O)N1CCC(C(=O)N(C)CCCc2nccn2C)CC1`, the cytotoxicity at 70.5 h was 1.13%.

Turning to `CNC(=O)c1cc2c(nc1NCC1CC1)CCN(S(=O)(=O)C1CC1)CC2`, the cytotoxicity at 70.5 h stood at 2.84%.

On to `Cc1nc(C(=O)N(CC2CCCO2)c2ccncc2)cs1` (centres undefined), for which the cytotoxicity at 70.5 h is -16.6%.

For `CCn1c(C)nnc1SCCNC(=O)c1cccc2ccnn12`, the cytotoxicity at 70.5 h was 14.1%.

On to `COc1cccc(CNCCc2cc(F)cc3c2OCOC3)c1OC`, for which the cytotoxicity at 70.5 h was 5.71%.

For the molecule `CC(=O)N1CCCN(C(C)C(=O)Nc2ccnn2C(C)C)CC1` (centres undefined), the cytotoxicity at 70.5 h was -3.26%.

Regarding `CCc1nccc(CN2CCC(CNC(=O)Nc3ccccc3)C2)n1` (centres undefined), the cytotoxicity at 70.5 h is 18.8%.

As for `Cn1cc(C(=O)NC2CCCC2)c(-c2cccnc2)n1`, the cytotoxicity at 70.5 h was -10.4%.

For the molecule `COCc1nc2ncc3c(=O)n(-c4ccccc4OC)ccc3n2n1`, the cytotoxicity at 70.5 h is -5.8%.

Consider `COCC1CCN(CCCc2cccc(OC)c2)CC1`, for which the cytotoxicity at 70.5 h was determined as 30.7%.

For `CCn1cc(C(=O)N2CCCN(c3cccnn3)CC2)c2ccccc21`, the cytotoxicity at 70.5 h came out at 14.2%.

Turning to `CCN1CCC(CC(=O)NCc2cc(C)nn2C)CC1`, the cytotoxicity at 70.5 h was -4.69%.

Take `CCN(Cc1ncc(C(C)(C)C)o1)Cc1ccccc1C`: the cytotoxicity at 70.5 h was -1.58%.

In the case of `CCCC(=O)NC(C(=O)OC)c1cc(F)ccc1F` (centres undefined), the cytotoxicity at 70.5 h was -3.96%.

As to `O=C(NC1CCN(c2ccccc2Br)C1)c1c[nH]nn1` (centres undefined), the cytotoxicity at 70.5 h is -6.49%.

`OC[C@H]1CN(Cc2c(Cl)cncc2Cl)C[C@H]1CN1CCCC1`: the cytotoxicity at 70.5 h is -9.31%.

As to `COCCN1CCC(CNC(=O)c2ccnc(-n3ccnc3)c2)CC1`, the cytotoxicity at 70.5 h is -0.309%.

Turning to `Cc1cc(N2CCC(c3n[nH]c4nccnc34)C2)ncn1` (centres undefined), the cytotoxicity at 70.5 h amounted to 19.2%.

Take `O=C(CN1CCCC1c1noc(C2CC2)n1)N1CCc2ccccc21` (centres undefined): the cytotoxicity at 70.5 h is -7.43%.

In the case of `Cc1cccc(CN2CC3(CCN(C(=O)C4CC4)CC3)OCC2=O)n1`, the cytotoxicity at 70.5 h amounted to 1.74%.

Take `c1ccc2c(c1)CC(Cc1cc(N3CCCC3)cnn1)CCO2` (centres undefined): the cytotoxicity at 70.5 h worked out at 2.31%.

Regarding `NC(=O)CCN(C(=O)c1cccc2c1OCO2)c1ccccc1`, the cytotoxicity at 70.5 h was -14%.

In the case of `Cn1cnc2cc(C(=O)NS(=O)(=O)c3ccccc3Cl)ccc21`, the cytotoxicity at 70.5 h was -2.15%.

On to `CC(NC(N)=O)C(=O)N1CCCN(Cc2nccn2C(C)C)CC1` (centres undefined), for which the cytotoxicity at 70.5 h was -11.9%.

Consider `Cn1cc(C(=O)N2CCCC(Cc3cnccn3)C2)cn1` (centres undefined), for which the cytotoxicity at 70.5 h is -15.6%.

Regarding `O=C(Cc1ccc2c(c1)OCO2)N1CCN(c2ccccc2Cl)C(=O)C1`, the cytotoxicity at 70.5 h was -4.7%.

For `c1cc(CN2CCC(n3cc(CN4CCCC4)nn3)CC2)cs1`, the cytotoxicity at 70.5 h was -5.26%.

For the molecule `COc1cc(C(=O)NCCc2ccc(OC)c(OC)c2)on1`, the cytotoxicity at 70.5 h was -2.98%.

Consider `O=C(NC1CCC1)c1cccc(S(=O)(=O)NCc2nc(C3CC3)no2)c1`, for which the cytotoxicity at 70.5 h was 6.45%.

With `Cc1ccnc(NC(=O)c2ccc(Cl)o2)c1`, the cytotoxicity at 70.5 h is -9.97%.

Take `c1coc(-c2nnc(CN3CCOC(Cn4cccn4)C3)o2)c1` (centres undefined): the cytotoxicity at 70.5 h turned out to be 6.43%.

As to `CC(=O)N1CCC2(CC1)CN(C(=O)C1CC1)c1ccc(F)cc12`, the cytotoxicity at 70.5 h was -0.352%.

`Cc1ncc2c(n1)CCCC2NC(=O)c1ccc(Cn2cccn2)cc1` (centres undefined): the cytotoxicity at 70.5 h is -5.6%.

In the case of `O=C(c1ccc(F)cc1)N1C[C@@H]2CCN(c3cccnc3)C[C@@H]2C1`, the cytotoxicity at 70.5 h is -11.2%.

As to `Fc1ccc(-c2cnc(CN3CCOC(Cn4cccn4)C3)o2)cc1` (centres undefined), the cytotoxicity at 70.5 h was -5.15%.

In the case of `Cc1ccc2c(c1)C(NC(=O)N(C)C)CC21CCN(CC2CC2)CC1` (centres undefined), the cytotoxicity at 70.5 h is -9.46%.

`CCOCCN1C[C@H](C(=O)Nc2cccnc2)[C@@H]2CCO[C@@H]2C1`: the cytotoxicity at 70.5 h is -4.15%.

`Cc1cnn(C2CN(CC(O)Cn3cccn3)C2)c1` (centres undefined): the cytotoxicity at 70.5 h turned out to be 7.89%.

With `CC(C)N(C)Cc1cnc2n1CCN(Cc1ccsc1)C2`, the cytotoxicity at 70.5 h was -8.42%.

Consider `CC(NC(=O)N1CCNC(=O)CC1)c1c(F)cccc1Cl` (centres undefined), for which the cytotoxicity at 70.5 h was -4.44%.

For the molecule `COc1cc(C(=O)N(Cc2cnn(C)c2)C(C)C)ccc1OCC(N)=O`, the cytotoxicity at 70.5 h was determined as 4.9%.

`O=C(CCc1ccccn1)N1CCCC(n2cncn2)C1` (centres undefined): the cytotoxicity at 70.5 h was -13.6%.

With `O=C(NCc1ccc(Cl)cc1)N1CCN(CC(O)C2CC2)CC1` (centres undefined), the cytotoxicity at 70.5 h was -8.1%.

For `CCCC1(CO)CCCN(c2ncnc3c2c(C)nn3C)C1` (centres undefined), the cytotoxicity at 70.5 h is -3.54%.

With `CC(C)(C)OC(=O)NCC1CCCCN1Cc1ccncc1` (centres undefined), the cytotoxicity at 70.5 h was -1.8%.

Regarding `O=C(Cn1cc(C(=O)O)ccc1=O)NCc1ccc(F)c(Cl)c1`, the cytotoxicity at 70.5 h is -13.4%.

For `CC(C)c1nn(C)c(N(C)C)c1CNCc1cccc(CN(C)C)c1`, the cytotoxicity at 70.5 h stood at 0.875%.

With `CCN(Cc1ccc2c(c1)OCCO2)C(=O)NCCc1cnn(C)c1`, the cytotoxicity at 70.5 h stood at 0.223%.

As to `O=C(CS(=O)(=O)c1cccc[n+]1[O-])NC1CCCc2ccccc21` (centres undefined), the cytotoxicity at 70.5 h is 1.9%.

Take `COc1nccc(N2CC[C@@H](N3CCN(C)CC3)[C@H](O)C2)c1C#N`: the cytotoxicity at 70.5 h was -6.47%.

As to `O=S(=O)(Cc1ccccc1)NCCNc1ccc(-n2cccc2)nn1`, the cytotoxicity at 70.5 h was -13.6%.

For the molecule `COCC(=O)N1Cc2nccn2CC(COc2cccnc2)C1` (centres undefined), the cytotoxicity at 70.5 h is -14.4%.

In the case of `CCOc1ncccc1NC(=O)NCC(C)O` (centres undefined), the cytotoxicity at 70.5 h was -3.67%.

For `O=C(C1CCCOC1)N(CC(F)F)c1cccc(Cl)c1` (centres undefined), the cytotoxicity at 70.5 h was 2.67%.

In the case of `COCC(=O)N1CCC(c2cc(-c3ccc(OC)cc3)n[nH]2)C1` (centres undefined), the cytotoxicity at 70.5 h came to 10.4%.

For the molecule `Cc1noc(-c2ccnc(Oc3cccc(CN4CCCC4)c3F)c2)n1`, the cytotoxicity at 70.5 h was -14.1%.

Turning to `CC(CCc1ccccc1)NC(=O)Nc1cnn(CC(N)=O)c1` (centres undefined), the cytotoxicity at 70.5 h is -2.53%.

Consider `COc1ccc(C2=CCN(C(=O)C3CC(=O)N(C4CC4)C3)CC2)cc1` (centres undefined), for which the cytotoxicity at 70.5 h is -12.9%.

Turning to `CC(CN1CCOC1=O)NC(=O)c1ccccc1Oc1ccccc1` (centres undefined), the cytotoxicity at 70.5 h was determined as 27.1%.

`O=C1CN(Cc2cn(CC3CCCN(C4CCSCC4)C3)nn2)CCN1` (centres undefined): the cytotoxicity at 70.5 h was found to be 16.1%.

Turning to `Cc1cc(C2CCCN(C(=O)c3cnccn3)C2)ccn1` (centres undefined), the cytotoxicity at 70.5 h was -0.249%.

As for `CCN1CCCC(O)(CN(C)Cc2ccc(C)o2)C1` (centres undefined), the cytotoxicity at 70.5 h is -10.6%.

For `CCNc1ncc2c(n1)CN(c1ccc(OC(F)(F)F)cc1)C2=O`, the cytotoxicity at 70.5 h was -15.6%.
